The IC50 is the concentration that inhibits the measured activity by half.

One series deals with BCL2 D103Y (Homo sapiens, UniProt P10415, D103Y). Nature of the series: TR-FRET competitive binding assay, BCL2 D103Y. The note with it: Ki determined from IC50, read-out: TR_FRET EKI_Bcl2 D103Y. The method, boiled down:
(§1)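 Terbium-labelled N-terminal Halo-fusion BCL2 or BCLXL (E. coli), 0.5 nM, competed against fluorescein-labelled PUMA peptide (2 or 20 nM) for 2 h at 23° C in 50 mM Hepes pH 7.5, 150 mM NaCl, 5% DMSO. TR-FRET 520/495 nm ratio gave IC50 by four-parameter fit; Ki derived from IC50.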
On the technique in general: Time-resolved FRET reads energy transfer from a long-lived donor to a nearby acceptor.

The next series relates to platelets. Nature of the series: Platelet depletion in SCID mice. The class given is in vivo. The note with it: 25 mg/kg IV bolus, vs control group; for Platelet loss (%) 6 h: 6 h after dosing; for Platelet loss (%) 24 h: 24 h after dosing. The procedure:
(§2) Pharmacokinetic (PK) and platelet toxicity were investigated in SCID mice. Compounds were administered at 25 mg/kg by IV bolus, and formulated in PEG/Ethanol/NaCl 0.9% (40/10/50 v/v/v).
(§3) Blood samples (3 animals/time point and 3 time points/animal) were collected over 24 h after dosing: 0.05 h, 0.5 h, 1 h, 3 h, 6 h and 24 h for PK and 6 h and 24 h for platelets.
(§4) PK samples were analyzed by liquid chromatography using tandem mass spectrometry detection (LC-MS/MS) and platelet count (109/L) was measured using an hematology analyzer. Percentage of platelet loss was calculated at both time points (T+6 h and 24 h) as compared to a control group of 6 animals. PK parameters (Cinf and AUC24, which correspond to the concentration at the end of bolus administration and the area under curve over 24 h, respectively) were also determined using a non-compartmental analysis.

The test system of another series is KMS-12-PE Bcl-2 WT. In words: In vitro cytotoxicity CellTiter-Glo 48 h, KMS-12-PE Bcl-2 WT. The class given is cell-based. The note with it: Homo sapiens, KMS-12-PE, C50 = concentration needed to reach 50% of the cellular viability. Summed up: (§5)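 KMS-12-PE myeloma cells were lentivirally transduced with wild-type or G101V-mutant Bcl-2 and sorted by TagRFP. They were exposed to compounds as 11-point dose responses for 48 h at 37 °C, 5% CO2. Viability was read by CellTiter-Glo ATP luminescence, and C50 was the concentration giving 50% viability.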
On the technique in general: In ATP-based viability assays light output follows the ATP content of the culture.

The next series has as its target BCL2 WT (Homo sapiens (Human), UniProt P10415). Nature of the series: TR-FRET competitive binding assay, BCL2 WT. The settings on record: Ki determined from IC50, read-out: TR_FRET EKI_Bcl2 WT. The method, boiled down:
as §1

The subject of series [1] is BCL2 G101V. Nature of the series: TR-FRET competitive binding assay, BCL2 G101V. On the set-up: species or system human. The note with it: ratio Ki BCL2 G101V / Ki BCL2 WT. The method, boiled down: as §1
Series [2] deals with BCL2 G101V (Homo sapiens, UniProt P10415, G101V). In words: TR-FRET competitive binding assay, BCL2 G101V. The note with it: BCL2 G101V; Ki determined from IC50; read-out: TR_FRET EKI_Bcl2 G101V. The method, boiled down:
as §1

The nature of series [3]: Pharmacokinetics in SCID mice. In kind it is in vivo. The settings on record: 25 mg/kg IV bolus; for PK parameters Cinf: concentration at the end of bolus administration; for AUC: mouse, blood, area under curve over 24 h, read-out: PK parameters AUC24. The method, then: as §2, §3, §4
The next series relates to KMS-12-PE Bcl-2 G101V. In words: In vitro cytotoxicity CellTiter-Glo 48 h, KMS-12-PE Bcl-2 G101V. In kind it is cell-based. The note with it: for Ratio (G101V/WT): C50 KMS-12-PE Bcl-2 G101V over C50 KMS-12-PE Bcl-2 WT; for IC50: Homo sapiens, KMS-12-PE, 48 h, CellTiter-Glo, C50 = concentration needed to reach 50% of the cellular viability. The method, boiled down: as §5
A further series concerns the target BCL2 F104I (Homo sapiens, UniProt P10415, F104I). Nature of the series: TR-FRET competitive binding assay, BCL2 F104I. The settings on record: Ki determined from IC50, read-out: TR_FRET EKI_Bcl2 F104I. The method, boiled down:
as §1

Another series concerns the target BCLXL WT (Homo sapiens (Human), UniProt Q07817). In words: TR-FRET competitive binding assay, BCLXL WT. The note with it: for Ki: BCLXL WT, Ki determined from IC50, read-out: TR_FRET EKI BclxL; for TR_FRET EKI BCLxL/WT selectivty ratio: ratio Ki BCLxL / Ki BCL2 WT. The method, boiled down: as §1
Another series has as its target BCL2 D111A (Homo sapiens, UniProt P10415, D111A). In words: TR-FRET competitive binding assay, BCL2 D111A. The note with it: Ki determined from IC50, read-out: TR_FRET EKI_Bcl2 D111A. The method, boiled down:
as §1

The structures appear in SMILES notation.

Sequence of BCLXL WT (Q07817 other isoform, or with tags, fused parts or gaps): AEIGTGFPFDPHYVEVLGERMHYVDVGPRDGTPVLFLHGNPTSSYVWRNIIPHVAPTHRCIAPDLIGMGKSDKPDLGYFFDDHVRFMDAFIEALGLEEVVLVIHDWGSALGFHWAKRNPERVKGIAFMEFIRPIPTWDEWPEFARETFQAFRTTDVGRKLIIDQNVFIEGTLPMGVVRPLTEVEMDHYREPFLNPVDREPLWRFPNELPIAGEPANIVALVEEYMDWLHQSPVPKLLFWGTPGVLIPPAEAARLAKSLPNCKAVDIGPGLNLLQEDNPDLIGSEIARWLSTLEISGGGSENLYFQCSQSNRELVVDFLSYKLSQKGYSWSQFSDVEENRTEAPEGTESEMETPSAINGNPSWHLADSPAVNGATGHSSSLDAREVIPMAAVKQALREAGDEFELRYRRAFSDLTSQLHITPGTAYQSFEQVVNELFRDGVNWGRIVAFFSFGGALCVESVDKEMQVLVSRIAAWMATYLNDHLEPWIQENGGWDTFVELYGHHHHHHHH

As to `COc1ccc(CC(=O)N2CCc3cc(-c4cc(C(=O)N(c5ccc(O)cc5)c5cc(C#N)n(C)c5C)c(C)n4C)c(C(=O)N4Cc5ccccc5C[C@H]4CN4CCCCC4)cc3C2)c(F)c1` [Example 33, N-(5-cyano-1,2-dimethylpyrrol-3-yl)-5-{2-[2-(2-fluoro-4-methoxyphenyl)acetyl]-7-{[(3S)-3-(piperidin-1-ylmethyl)-3,4-dihydro-1H-isoquinolin-2-yl]carbonyl}-3,4-dihydro-1H-isoquinolin-6-yl}-N-(4-hydroxyphenyl)-1,2-dimethylpyrrole-3-carboxamide], the Ki was 0.22 nM at BCL2 D103Y; 0.15 nM at BCL2 WT; 0.5 nM at BCL2 G101V [2]; 0.5 nM on BCL2 F104I; 3.7 nM at BCLXL WT; 0.1 nM on BCL2 D111A. In addition, in the series with platelets, the “Platelet loss (%) 6 h” value is listed as 33.5%. Moreover, the “Platelet loss (%) 24 h” value with platelets came out at 22.5%. The results for the half-maximal inhibitory concentration (IC50) in the series with KMS-12-PE Bcl-2 WT and in the series with KMS-12-PE Bcl-2 G101V were 0.0054 µM and 0.0491 µM, respectively. In addition, the “TR_FRET EKI G101V/WT selectivty ratio” value with BCL2 G101V [1] was found to be 3.3. Moreover, the “PK parameters Cinf” value in series [3] stood at 8.4 µM. Also, the AUC in series [3] stood at 12.6 µM·h. For the same compound, in the series with KMS-12-PE Bcl-2 G101V, the “Ratio (G101V/WT)” value worked out at 9.09. Further, the “TR_FRET EKI BCLxL/WT selectivty ratio” value on BCLXL WT was found to be 24.7.

Consider `Cc1c(N(C(=O)c2cc(-c3cc4c(cc3C(=O)N3Cc5ccccc5C[C@H]3C)CN(C(=O)Cc3ccc(OCCN5C[C@@H](C)O[C@@H](C)C5)cc3)CC4)n(C)c2C)c2ccc(O)cc2)cc(C#N)n1C` [Example 39, N-(5-cyano-1,2-dimethyl-1H-pyrrol-3-yl)-5-{2-[2-(4-{2-[cis-2,6-dimethylmorpholin-4-yl]ethoxy}phenyl)acetyl]-7-[(3R)-3-methyl-1,2,3,4-tetrahydroisoquinoline-2-carbonyl]-1,2,3,4-tetrahydroisoquinolin-6-yl}-N-(4-hydroxyphenyl)-1,2-dimethyl-1H-pyrrole-3-carboxamide], for which the Ki was 0.71 nM at BCL2 D103Y; 0.2 nM on BCL2 WT; 0.7 nM at BCL2 G101V [2]; 0.46 nM at BCL2 F104I; 2.3 nM at BCLXL WT; 0.18 nM on BCL2 D111A. The “Platelet loss (%) 6 h” value in the series on platelets is on record as 26.9%. Besides, the “Platelet loss (%) 24 h” value in the series on platelets was determined as 20.2%. For the same compound, the 50% inhibitory concentration (IC50) in the series on KMS-12-PE Bcl-2 WT was determined as 0.0056 µM; in the series on KMS-12-PE Bcl-2 G101V, 0.023 µM. The “TR_FRET EKI G101V/WT selectivty ratio” value with BCL2 G101V [1] is 3.5. Besides, the “PK parameters Cinf” value in series [3] was determined as 26.5 µM. The AUC in [3] came to 26.7 µM·h. Also, the “Ratio (G101V/WT)” value in the series on KMS-12-PE Bcl-2 G101V turned out to be 4.07. For the same compound, the “TR_FRET EKI BCLxL/WT selectivty ratio” value at BCLXL WT was 11.5.

With `Cc1c(N(C(=O)c2cc(-c3cc4c(cc3C(=O)N3Cc5ccccc5C[C@H]3CN3CCOCC3)CN(C(=O)Cc3ccc(OCCC5CCOCC5)cc3F)CC4)n(C)c2C)c2ccc(O)cc2)cc(C#N)n1C` [Example 54, N-(5-cyano-1,2-dimethyl-pyrrol-3-yl)-5-[2-[2-[2-fluoro-4-(2-tetrahydropyran-4-ylethoxy)phenyl]acetyl]-7-[(3S)-3-(morpholinomethyl)-3,4-dihydro-1H-isoquinoline-2-carbonyl]-3,4-dihydro-1H-isoquinolin-6-yl]-N-(4-hydroxyphenyl)-1,2-dimethyl-pyrrole-3-carboxamide], the Ki at BCL2 D103Y came to 0.11 nM; on BCL2 WT it was 0.1 nM; on BCL2 G101V [2], 0.3 nM; at BCL2 F104I it was 0.52 nM; at BCLXL WT, 2.3 nM; at BCL2 D111A, 0.4 nM. In addition, the “Platelet loss (%) 6 h” value in the series on platelets was found to be 28.6%. Further, the “Platelet loss (%) 24 h” value with platelets came out at 22.5%. Also, the 50% inhibitory concentration (IC50) with KMS-12-PE Bcl-2 WT was found to be 0.0057 µM; with KMS-12-PE Bcl-2 G101V, 0.024 µM. Further, the “TR_FRET EKI G101V/WT selectivty ratio” value in the series with BCL2 G101V [1] stood at 2.7. The “PK parameters Cinf” value in [3] worked out at 11.4 µM. Further, the AUC in [3] amounted to 9.2 µM·h. Further, the “Ratio (G101V/WT)” value with KMS-12-PE Bcl-2 G101V turned out to be 4.23. On BCLXL WT, the “TR_FRET EKI BCLxL/WT selectivty ratio” value came out at 24.0.

For the compound `Cc1c(N(C(=O)c2cc(-c3cc4c(cc3C(=O)N3Cc5ccccc5C[C@H]3CN3CCCCC3)CN(C(=O)Cc3ccc(OCCC5CCOCC5)cc3F)CC4)n(C)c2C)c2ccc(O)cc2)cc(C#N)n1C` [Example 34, N-(5-cyano-1,2-dimethylpyrrol-3-yl)-5-[2-(2-{2-fluoro-4-[2-(oxan-4-yl)ethoxy]phenyl}acetyl)-7-{[(3S)-3-(piperidin-1-ylmethyl)-3,4-dihydro-1H-isoquinolin-2-yl]carbonyl}-3,4-dihydro-1H-isoquinolin-6-yl]-N-(4-hydroxyphenyl)-1,2-dimethylpyrrole-3-carboxamide], the Ki amounted to 0.52 nM on BCL2 D103Y; 0.34 nM at BCL2 WT; 0.9 nM at BCL2 G101V [2]; 0.27 nM on BCL2 F104I; 5.3 nM on BCLXL WT; 0.2 nM at BCL2 D111A. Also, the “Platelet loss (%) 6 h” value with platelets amounted to 33.7%. In the series with platelets, the “Platelet loss (%) 24 h” value is recorded as 18.2%. The IC50 turned out to be 0.0052 µM in the series on KMS-12-PE Bcl-2 WT and 0.0275 µM in the series with KMS-12-PE Bcl-2 G101V. Moreover, the “TR_FRET EKI G101V/WT selectivty ratio” value in the series with BCL2 G101V [1] amounted to 2.6. The “PK parameters Cinf” value in series [3] amounted to 8.2 µM. Further, the AUC in series [3] was determined as 9.7 µM·h. Besides, the “Ratio (G101V/WT)” value with KMS-12-PE Bcl-2 G101V is 5.29. The “TR_FRET EKI BCLxL/WT selectivty ratio” value at BCLXL WT worked out at 15.6.

For `Cc1c(N(C(=O)c2cc(-c3cc4c(cc3C(=O)N3Cc5ccccc5C[C@H]3C)CN(C(=O)Cc3ccc(C5CCN(CCF)CC5)c(F)c3)CC4)n(C)c2C)c2ccc(O)cc2)cc(C#N)n1C` [Example 28, N-(5-cyano-1,2-dimethylpyrrol-3-yl)-5-[2-(2-{3-fluoro-4-[1-(2-fluoroethyl)piperidin-4-yl]phenyl}acetyl)-7-{[(3R)-3-methyl-3,4-dihydro-1H-isoquinolin-2-yl]carbonyl}-3,4-dihydro-1H-isoquinolin-6-yl]-N-(4-hydroxyphenyl)-1,2-dimethylpyrrole-3-carboxamide], the Ki amounted to 0.34 nM on BCL2 D103Y; 0.25 nM at BCL2 WT; 1.2 nM at BCL2 G101V [2]; 6.47 nM on BCL2 F104I; 5.6 nM on BCLXL WT; 0.59 nM at BCL2 D111A. In the series on platelets, the “Platelet loss (%) 6 h” value was 23.2%. Besides, the “Platelet loss (%) 24 h” value with platelets amounted to 15.2%. In addition, the figures for the 50% inhibitory concentration (IC50) in the series with KMS-12-PE Bcl-2 WT and in the series on KMS-12-PE Bcl-2 G101V were 0.0099 µM and 0.0643 µM, respectively. Also, the “TR_FRET EKI G101V/WT selectivty ratio” value with BCL2 G101V [1] was found to be 4.8. Further, the “PK parameters Cinf” value in series [3] was found to be 18.2 µM. In series [3], the AUC came out at 38.3 µM·h. For the same compound, the “Ratio (G101V/WT)” value in the series on KMS-12-PE Bcl-2 G101V came out at 6.51. In addition, the “TR_FRET EKI BCLxL/WT selectivty ratio” value on BCLXL WT stood at 22.4.

(Values after patent publication US20250179047A1, “5-[7-(3,4-DIHYDRO-1H-ISOQUINOLINE-2-CARBONYL)-1,2,3,4 TETRAHYDROISOQUINOLIN-6-YL]-1H-PYRROLE-3-CARBOXAMIDE DERIVATIVES, PHARMACEUTICAL COMPOSITIONS CONTAINING THEM AND THEIR USES AS PRO-APOPTOTIC AGENTS” (LES LABORATOIRES SERVIER, priority 2022, published 2025).)
